Laboratory results published in patent US20060264419A1 (priority 2003, published 2006).

What follows are compounds tested against 5-HT2A receptors (Rattus norvegicus, UniProt P14842) (assay: in-vitro affinity to 5-HT2A receptors, displacement of [3H]ketanserine (Example A1)). Conditions: read-out: HT2A IC50.
Format: binding
Excerpt: The 5-HT2A receptors are exposed both to [^3H]ketanserine (a substance which is known for its affinity to the receptor) and also to the test compound. The decrease in the affinity of [^3H]ketanserine to the receptor is an indication of the affinity of the test substance to the 5-HT2A receptor.

Chain of 5-HT2A receptors (P14842 whole entry): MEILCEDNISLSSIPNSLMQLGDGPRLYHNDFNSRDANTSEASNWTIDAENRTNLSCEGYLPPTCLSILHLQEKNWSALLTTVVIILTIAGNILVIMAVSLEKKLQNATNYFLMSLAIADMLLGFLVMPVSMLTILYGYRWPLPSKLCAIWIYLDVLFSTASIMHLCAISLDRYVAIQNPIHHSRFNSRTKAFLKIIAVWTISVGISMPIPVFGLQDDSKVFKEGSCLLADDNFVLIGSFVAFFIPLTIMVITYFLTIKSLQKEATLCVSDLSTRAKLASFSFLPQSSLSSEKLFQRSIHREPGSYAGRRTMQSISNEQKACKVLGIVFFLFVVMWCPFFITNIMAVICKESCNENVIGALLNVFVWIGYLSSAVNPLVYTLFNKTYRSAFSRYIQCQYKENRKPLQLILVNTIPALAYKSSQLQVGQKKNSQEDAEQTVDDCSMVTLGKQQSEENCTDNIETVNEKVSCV

Row | Compound | IC50
1 | 1-(Biphenyl-4-yltrifluoromethyl-1H-pyrazol-4-ylmethyl)-4-methylpiperazine [Example 1026] | 260 nM

Same assay, conditions: target not given; description names affinity to 5-HT2A receptors; read-out: IC50

Row | Compound | IC50
2 | 1-Biphenyl-4-yl-5-(2-fluorophenyl)-4-(2-methoxy-methylpyrrolidin-1-ylmethyl)-1H-pyrazole [(48)] | 510 nM
3 | OCc1cnn(-c2ccc(-c3ccccc3)cc2)c1-c1ccccc1F [(21), [1-Biphenyl-4-yl-5-(2-fluorophenyl)-1H-pyrazol-4-yl]-methanol] | 1200 nM
4 | CC(=O)OCc1cnn(-c2ccc(-c3ccccc3)cc2)c1-c1ccccc1F [(22), 1-Biphenyl-4-yl-5-(2-fluorophenyl)-1H-pyrazol-4-ylmethyl acetate] | 1400 nM
5 | Fc1ccccc1-c1c(CN2CCCCC2)cnn1-c1ccc(-c2ccccc2)cc1 [(23), 1-[1-Biphenyl-4-yl-5-(2-fluorophenyl)-1H-pyrazol-4-ylmethyl]-piperidine] | 30 nM
6 | Fc1ccccc1-c1c(CN2CCN(Cc3ccccc3)CC2)cnn1-c1ccc(-c2ccccc2)cc1 [(24), 1-Benzyl-4-[1-biphenyl-4-yl-5-(2-fluorophenyl)-1H-pyrazol-4-ylmethyl]piperazine] | 170 nM
7 | Fc1ccccc1-c1c(CN2CCC(N3CCOCC3)CC2)cnn1-c1ccc(-c2ccccc2)cc1 [(25), 4-{1-[1-Biphenyl-4-yl-5-(2-fluorophenyl)-1H-pyrazol-4-ylmethyl]piperidin-4-yl}morpholine] | 560 nM
8 | COCCCNCc1cnn(-c2ccc(-c3ccccc3)cc2)c1-c1ccccc1F [(26), [1-Biphenyl-4-yl-5-(2-fluorophenyl)-1H-pyrazol-4-ylmethyl]-(3-methoxypropyl)amine] | 34 nM
9 | Fc1ccccc1-c1c(CN2CCN3CCc4ccccc4C3C2)cnn1-c1ccc(-c2ccccc2)cc1 (stereo not shown) [(27), 2-[1-Biphenyl-4-yl-5-(2-fluorophenyl)-1H-pyrazol-4-ylmethyl]-1,3,4,6,7,11b-hexahydro-2H-pyrazino[2,1-a]-isoquinoline] | 280 nM
10 | Fc1ccccc1-c1c(CN2CCOCC2)cnn1-c1ccc(-c2ccccc2)cc1 [(28), 4-[1-Biphenyl-4-yl-5-(2-fluorophenyl)-1H-pyrazol-4-ylmethyl]-morpholine] | 1100 nM
11 | O=C(O)CNCc1cnn(-c2ccc(-c3ccccc3)cc2)c1-c1ccccc1F [(29), {[1-Biphenyl-4-yl-5-(2-fluorophenyl)-1H-pyrazol-4-ylmethyl]-amino}acetic acid] | 1700 nM
12 | Fc1ccccc1-c1c(CN2CC=CC2)cnn1-c1ccc(-c2ccccc2)cc1 [(30), 1-Biphenyl-4-yl-4-(2,5-dihydropyrrol-1-ylmethyl)-5-(2-fluorophenyl)-1H-pyrazole] | 36 nM
13 | Fc1ccccc1-c1c(CN2CCCCCC2)cnn1-c1ccc(-c2ccccc2)cc1 [(31), 1-[1-Biphenyl-4-yl-5-(2-fluorophenyl)-1H-pyrazol-4-ylmethyl]-azepan] | 48 nM
14 | CCN(Cc1ccccc1)Cc1cnn(-c2ccc(-c3ccccc3)cc2)c1-c1ccccc1F [(32), Benzyl-[1-biphenyl-4-yl-5-(2-fluorophenyl)-1H-pyrazol-4-ylmethyl]ethylamine] | 320 nM
15 | CCN(CC)Cc1cnn(-c2ccc(-c3ccccc3)cc2)c1-c1ccccc1F [(33), [1-Biphenyl-4-yl-5-(2-fluorophenyl)-1H-pyrazol-4-ylmethyl]-diethylamine] | 55 nM
16 | CN(C)Cc1cnn(-c2ccc(-c3ccccc3)cc2)c1-c1ccccc1F [(34), [1-Biphenyl-4-yl-5-(2-fluorophenyl)-1H-pyrazol-4-ylmethyl]-dimethylamine] | 21 nM
17 | Fc1ccccc1-c1c(CN2CCCC2)cnn1-c1ccc(-c2ccccc2)cc1 [(35), 1-Biphenyl-4-yl-5-(2-fluorophenyl)-4-pyrrolidin-1-ylmethyl-1H-pyrazole] | 32 nM
18 | Fc1ccccc1-c1c(CN2CCc3ccccc3C2)cnn1-c1ccc(-c2ccccc2)cc1 [(36), 2-[1-Biphenyl-4-yl-5-(2-fluorophenyl)-1H-pyrazol-4-ylmethyl]-1,2,3,4-tetrahydroisoquinoline] | 70 nM
19 | CN(C)C1CCN(Cc2cnn(-c3ccc(-c4ccccc4)cc3)c2-c2ccccc2F)CC1 [(37), {1-[1-Biphenyl-4-yl-5-(2-fluorophenyl)-1H-pyrazol-4-ylmethyl]-piperidin-4-yl}dimethylamine] | 200 nM
20 | Fc1ccccc1-c1c(CN2CC=CCC2)cnn1-c1ccc(-c2ccccc2)cc1 [(38), 1-[1-Biphenyl-4-yl-5-(2-fluorophenyl)-1H-pyrazol-4-ylmethyl]-1,2,3,6-tetrahydropyridine] | 170 nM
21 | CN1CCC(N(C)Cc2cnn(-c3ccc(-c4ccccc4)cc3)c2-c2ccccc2F)CC1 [(39), [1-Biphenyl-4-yl-5-(2-fluorophenyl)-1H-pyrazol-4-ylmethyl]-methyl-(1-methylpiperidin-4-yl)amine] | 160 nM
22 | CN1CCN(NCc2cnn(-c3ccc(-c4ccccc4)cc3)c2-c2ccccc2F)CC1 [(40), [1-Biphenyl-4-yl-5-(2-fluorophenyl)-1H-pyrazol-4-ylmethyl]-(4-methylpiperazin-1-yl)amine] | 14 nM

Row | Compound | IC50
23 | CN1CCN(Cc2cnn(-c3ccc(-c4ccccc4)cc3)c2-c2ccccc2F)CC1 [(41), 1-[1-Biphenyl-4-yl-5-(2-fluorophenyl)-1H-pyrazol-4-ylmethyl]-4-methylpiperazine] | 24 nM
24 | Fc1ccccc1-c1c(CCN2CCOCC2)cnn1-c1ccc(-c2ccccc2)cc1 [(42), 4-{2-[1-Biphenyl-4-yl-5-(2-fluorophenyl)-1H-pyrazol-4-yl]ethyl}morpholine] | 12 nM
25 | Fc1ccccc1-c1cc(CN2CCCCC2)nn1-c1ccc(-c2ccccc2)cc1 [(43), 1-[1-Biphenyl-4-yl-5-(2-fluorophenyl)-1H-pyrazol-3-ylmethyl]-piperidine] | 120 nM
26 | Fc1ccccc1-c1cc(CN2CCOCC2)nn1-c1ccc(-c2ccccc2)cc1 [(44), 4-[1-Biphenyl-4-yl-5-(2-fluorophenyl)-1H-pyrazol-3-ylmethyl]-morpholine] | 1100 nM
27 | CN1CCN(Cc2cc(-c3ccccc3F)n(-c3ccc(-c4ccccc4)cc3)n2)CC1 [(45), 1-[1-Biphenyl-4-yl-5-(2-fluorophenyl)-1H-pyrazol-3-ylmethyl]-4-methylpiperazine] | 300 nM
28 | Fc1ccccc1-c1c(C=CCN2CCOCC2)cnn1-c1ccc(-c2ccccc2)cc1 [(46), 4-{3-[1-Biphenyl-4-yl-5-(2-fluorophenyl)-1H-pyrazol-4-yl]allyl}morpholine] | 17 nM
29 | Fc1ccccc1-c1c(CCCN2CCOCC2)cnn1-c1ccc(-c2ccccc2)cc1 [(47), 4-{3-[1-Biphenyl-4-yl-5-(2-fluorophenyl)-1H-pyrazol-4-yl]propyl}morpholine] | 23 nM
30 | CC1CCN(Cc2cnn(-c3ccc(-c4ccccc4)cc3)c2-c2ccccc2F)CC1 [(49), 1-[1-Biphenyl-4-yl-5-(2-fluorophenyl)-1H-pyrazol-4-ylmethyl]-4-methylpiperidine] | 130 nM
31 | CC(=O)NC1CCN(Cc2cnn(-c3ccc(-c4ccccc4)cc3)c2-c2ccccc2F)C1 (stereo not shown) [(50), N-{1-[1-Biphenyl-4-yl-5-(2-fluorophenyl)-1H-pyrazol-4-ylmethyl]pyrrolidin-3-yl}acetamide] | 29 nM
32 | CCN(CC)CC1CCCCN1Cc1cnn(-c2ccc(-c3ccccc3)cc2)c1-c1ccccc1F (stereo not shown) [(51), {1-[1-Biphenyl-4-yl-5-(2-fluorophenyl)-1H-pyrazol-4-ylmethyl]-piperidin-2-ylmethyl}diethylamine] | 270 nM
33 | CN1CCN(C(=O)c2cnn(-c3ccc(-c4ccccc4)cc3)c2-c2ccccc2F)CC1 [(52), 1-[1-Biphenyl-4-yl-5-(2-fluorophenyl)-1H-pyrazol-4-yl]-1-(4-methylpiperazin-1-yl)methanone] | 820 nM
34 | OC1CCN(Cc2cnn(-c3ccc(-c4ccccc4)cc3)c2-c2ccccc2F)C1 (stereo not shown) [(53), 1-[1-Biphenyl-4-yl-5-(2-fluorophenyl)-1H-pyrazol-4-ylmethyl]-pyrrolidin-3-ol] | 14 nM
35 | CC(C)(C)OC(=O)N1CCN(Cc2cnn(-c3ccc(-c4ccccc4)cc3)c2-c2ccccc2F)CC1 [(54), tert-Butyl 4-[1-Biphenyl-4-yl-5-(2-fluorophenyl)-1H-pyrazol-4-ylmethyl]piperazine-1-carboxylate] | 82 nM
36 | Fc1ccccc1-c1c(CN2CCNCC2)cnn1-c1ccc(-c2ccccc2)cc1 [(55), 1-[1-Biphenyl-4-yl-5-(2-fluorophenyl)-1H-pyrazol-4-ylmethyl]-piperazine] | 26 nM
37 | Fc1ccccc1-c1c(CN2CCNCC2)cnn1-c1ccc(-c2ccccc2)nc1 [(56), 1-[5-(2-Fluorophenyl)-1-(6-phenylpyridin-3-yl)-1H-pyrazol-4-ylmethyl]piperazine] | 150 nM
38 | CN1CCN(Cc2cnn(-c3ccc(-c4ccccc4)nc3)c2-c2ccccc2F)CC1 [(57), 1-[5-(2-Fluorophenyl)-1-(6-phenylpyridin-3-yl)-1H-pyrazol-4-ylmethyl]-4-methylpiperazine] | 220 nM
39 | CN1CCN(Cc2cnn(-c3ccc(-c4ccccc4)cc3)c2-c2ccccn2)CC1 [(58), 1-(1-Biphenyl-4-yl-5-pyridin-2-yl-1H-pyrazol-4-ylmethyl)-4-methylpiperazine] | 50 nM
40 | CC(C)(C)OC(=O)N1CCN(Cc2cnn(-c3ccc(-c4ccccc4)cc3)c2-c2ccccn2)CC1 [(59), tert-Butyl 4-(1-biphenyl-4-yl-5-pyridin-2-yl-1H-pyrazol-4-ylmethyl)piperazine-1-carboxylate] | 780 nM
41 | c1ccc(-c2ccc(-n3ncc(CN4CCNCC4)c3-c3ccccn3)cc2)cc1 [(60), 1-(1-Biphenyl-4-yl-5-pyridin-2-yl-1H-pyrazol-4-ylmethyl)-piperazine] | 200 nM
42 | Fc1ccc(-c2ccc(-n3ncc(CN4CCOCC4)c3-c3ccccc3F)cc2)cc1 [(61), 4-[1-(4′-Fluorobiphenyl-4-yl)-5-(2-fluorophenyl)-1H-pyrazol-4-ylmethyl]morpholine] | 520 nM
43 | Fc1ccccc1-c1c(CN2CCOCC2)cnn1-c1ccc(-c2cccs2)cc1 [(62), 4-[5-(2-Fluorophenyl)-1-(4-thiophen-2-ylphenyl)-1H-pyrazol-4-ylmethyl]morpholine] | 620 nM
